# From patent US20250263441A1 (Metanovas Biotech Inc., priority 2024, published 2025)
# Where “and” joins values, the source holds several entries; their conditions need not be identical. Equal entries are not always repeated.
# Key:
# Assay type in all cases: cell-based
# [1] = tested on: Candida albicans (ATCC: 14053); test: Inhibitory effect of AMP-33 on Candida albicans (viability, OD 630 nm); details: 8 μg/mL, 28 hours; repeated experiments
# Protocol: (1) Candida albicans was inoculated into YM liquid medium and cultured overnight under aerobic conditions at 28° C. and […] on a shaker.
# (2) 200 μL of YM liquid culture medium and a predetermined concentration of peptide AMP-33 were added to a 96-deep-well plate. Then, 10 μL of the Candida albicans solution was inoculated (mixed well before inoculation).
# (3) After incubating at […] for 28 hours on a shaking table at 28° C., the turbidity of the bacterial solution was observed. A volume of 100 μL of the solution was taken, and the OD at 630 nm was measured using an enzyme-linked immunosorbent assay (ELISA) reader (after multiple blows and mixing).
# [formula] • OD Measurement: OD value of the test peptide. • ODneg: OD value with no bacterial inoculation, containing only […] medium. • ODpos: OD value with bacterial inoculation and without inhibitors.
# [2] = tested on: Mouse macrophage RAW264.7 cells; test: RT-qPCR of inflammation markers in LPS-stimulated RAW264.7 cells; details: LPS 10 ng/ml, 24 hours; repeated experiments
# Protocol: (1) Mouse macrophage RAW264.7 cells were cultured in DMEM supplemented with 10% fetal bovine serum (FBS) and 1% penicillin and streptomycin (P/S) at 37° C. in a 5% CO2 incubator.
# (2) 5×10^4 mouse-derived RAW264.7 macrophages were placed in 12-well cell culture plates and cultured for 24 hours. Then, 20 μL of PBS (negative control), Dexamethasone (positive control), and the test peptide were added to the wells for incubation for 2 hours. Afterward, 10 ng/ml of lipopolysaccharide (LPS) was mixed with RAW264.7 cells and incubated for 24 hours.
# (4) The cells were collected, and total RNA was isolated and extracted, reverse transcribed, and subjected to RT-qPCR to detect inflammation markers, including TNF-α, IL-1β, IL-6/10, CCL2, IFN-γ, iNOS, and GAPDH.
# 3. After treating RAW264.7 cells with AMP-33, RT-qPCR was used to detect the levels of IL-6 and IL-1ß mRNA.
# Propionibacterium acnes = test: Minimum inhibitory concentration on Propionibacterium acnes (liquid culture); details: anaerobic, 37° C., 24 to 48 hours
# Protocol: Primary screening of liquid culture: the peptides in Examples 1 to 2 were dissolved in pure water to a concentration of 100 μg/mL. Using a micropipette, 10 μL of the peptides were added to a new 96-well plate in order from left to right, starting from the second compartment. Positive and negative controls were established for use. The 96-well plates were arranged vertically, and the peptide concentrations in the control groups were the same as those of the antimicrobial peptides. The control groups included: pure water and bacteria, antimicrobial peptide FK13 and bacteria, antimicrobial peptide HPA3NT3 and bacteria, and ciprofloxacin and bacteria. An aseptic medium was used.
# If a 96-deep-well plate was used to culture bacteria, an additional 100 μL of sterile medium was added to all wells.
# Propionibacterium acnes was inoculated on an anaerobic blood agar plate, placed in an anaerobic bag, and incubated anaerobically at 37° C. for 48 hours. Propionibacterium acnes clones were then picked and incubated anaerobically in liquid anaerobic broth medium at 37° C. for an additional 48 hours. The bacterial concentration was measured and diluted to 107 CFU/mL with culture medium.
# The prepared fresh bacterial suspension was diluted to 105 CFU/mL and added to the 96-well plate with 90 μL of the bacterial suspension per well. The plate was incubated at 37° C. with a normal oxygen concentration for 24 to 48 hours (Propionibacterium acnes was cultured anaerobically at 37° C. for 24 to 48 hours in an anaerobic bag). The absorbance at 630 nm was measured using a microplate reader, and the degree of turbidity was observed by the naked eye.
# (iv) Repetition of Operations: The Operations in (iii) were Repeated Twice, and the Decision to Perform a Third Repetition was Based on the Reproducibility of the Experiment.
substance,measurement,setting,value
Example 2: LSKWLKKLGKLLAG (designated as AMP33),Viability of Candida albicans,[1],53.84 and 70.73 and 66.17
same,CCL-2 mRNA level,[2],0.51 and 0.52 and 0.58
same,COX-2 mRNA level,[2],0.71 and 0.58 and 1.16
same,IL-1β mRNA level,[2],0.40 and 0.45 and 0.77
same,IL-6 mRNA level,[2],0.96 and 0.49 and 0.95
same,IL-10 mRNA level,[2],1.80 and 2.50 and 1.32
same,Minimum inhibitory concentration on Propionibacterium acnes,Propionibacterium acnes,4 µg/mL
